Results as given in ChEMBL document CHEMBL4376837, “New Dual Small Molecules for Alzheimer's Disease Therapy Combining Histamine H3 Receptor (H3R) Antagonism and Calcium Channels Blockade with Additional Cholinesterase Inhibition” (J Med Chem, 2019).
The source made the active and inactive calls. The calls are words filed in the database; no cut-off is given here.

Assays:
Histamine H3 receptor = Histamine H3 receptor (Homo sapiens, UniProt Q9Y5N1); test: Displacement of [3H]-N-alpha-methylhistamine from human H3 receptor expressed in HEK293 cell membranes incubated for 60 mins by scintillation counting method
[1] = Antioxidant activity assessed as Trolox equivalents incubated for 15 mins by fluorescein based ORAC-FL assay; format: functional
[2] = Inhibition of human recombinant AChE using acetylthiocholine iodide substrate by Ellman's protocol based assay
[3] = target: Voltage-gated L-type calcium channel (Homo sapiens, UniProt Q13936+Q13698+Q01668+O60840); test: Inhibition of voltage-dependent L-type calcium channel in 70 mM K+-induced human SH-SY5Y cells assessed as blocking of depolarization-induced Ca2+ uptake by Fluo-4/AM dye based fluorescence microplate reader assay; format: cell-based
Mus musculus [4] = test: Neuroprotective activity in mouse model of LPS-induced induced memory impairment assessed as improvement in discrimination index at 1 mg/kg, ip by novel object recognition test; format: functional, organism-based
Cholinesterase = Cholinesterase (Homo sapiens, UniProt P06276); test: Inhibition of BuChE in human plasma using butyrylthiocholine iodide substrate by Ellman's protocol based assay; format: cell-free
SH-SY5Y [5] = test: Neuroprotective activity against Rotenone/Oligomycin A-induced cytotoxicity in human SH-SY5Y cells assessed as protection against cell death at 0.3 uM incubated for 24 hrs by MTT assay relative to control; format: functional
Histamine H4 receptor = Histamine H4 receptor (Homo sapiens, UniProt Q9H3N8); test: Antagonist activity at human H4 receptor expressed in CHO-K1 cells co-expressing G protein alpha16 assessed as inhibition of histamine-induced calcium mobilization incubated for 16 hrs by aequorin-based functional assay; format: cell-based
Aorta [6] = test: Vasodilating activity in Wistar rat endothelium-denuded aortic rings preconstricted with 100 mM KCl assessed as vasorelaxation at 1 nM relative to control; set-up: scale not given: the % may be the effect or the level left; conditions: 0.001 µM
SH-SY5Y [7] = test: Neuroprotective activity against okadaic acid-induced cytotoxicity in human SH-SY5Y cells assessed as protection against cell death at 1 uM incubated for 24 hrs by MTT assay relative to control; format: functional
SH-SY5Y [8] = test: Neuroprotective activity against Rotenone/Oligomycin A-induced cytotoxicity in human SH-SY5Y cells assessed as protection against cell death at 0.1 uM incubated for 24 hrs by MTT assay relative to control; format: functional
SH-SY5Y [9] = test: Neuroprotective activity against okadaic acid-induced cytotoxicity in human SH-SY5Y cells assessed as protection against cell death at 3 uM incubated for 24 hrs by MTT assay relative to control; format: functional
[10] = Permeability at 100 uM by PAMPA method
SH-SY5Y [11] = test: Neuroprotective activity against okadaic acid-induced cytotoxicity in human SH-SY5Y cells assessed as protection against cell death at 0.3 uM incubated for 24 hrs by MTT assay relative to control; format: functional
SH-SY5Y [12] = test: Neuroprotective activity against okadaic acid-induced cytotoxicity in human SH-SY5Y cells assessed as protection against cell death at 0.1 uM incubated for 24 hrs by MTT assay relative to control; format: functional
[13] = target: Histamine H1 receptor (Homo sapiens) (UniProt P35367); test: Displacement of [3H]-Pyrilamine from human H1 receptor expressed in CHO-K1 cell membranes incubated for 60 mins by scintillation counting method
Aorta [14] = test: Vasodilating activity in Wistar rat endothelium-denuded aortic rings preconstricted with 100 mM KCl assessed as vasorelaxation at 0.1 nM relative to control; set-up: scale not given: the % may be the effect or the level left; conditions: 0.0001 µM
Mus musculus [15] = test: Neuroprotective activity in mouse model of LPS-induced induced memory impairment assessed as improvement in discrimination index at 10 mg/kg, ip by novel object recognition test; format: functional, organism-based
Aorta [16] = test: Vasodilating activity in Wistar rat endothelium-denuded aortic rings preconstricted with 100 mM KCl assessed as vasorelaxation at 10 nM relative to control; set-up: scale not given: the % may be the effect or the level left; conditions: 0.01 µM
SH-SY5Y [17] = test: Neuroprotective activity against Rotenone/Oligomycin A-induced cytotoxicity in human SH-SY5Y cells assessed as protection against cell death at 3 uM incubated for 24 hrs by MTT assay relative to control; format: functional
SH-SY5Y [18] = test: Neuroprotective activity against Rotenone/Oligomycin A-induced cytotoxicity in human SH-SY5Y cells assessed as protection against cell death at 1 uM incubated for 24 hrs by MTT assay relative to control; format: functional

Sequence of Histamine H3 receptor (Q9Y5N1 whole entry): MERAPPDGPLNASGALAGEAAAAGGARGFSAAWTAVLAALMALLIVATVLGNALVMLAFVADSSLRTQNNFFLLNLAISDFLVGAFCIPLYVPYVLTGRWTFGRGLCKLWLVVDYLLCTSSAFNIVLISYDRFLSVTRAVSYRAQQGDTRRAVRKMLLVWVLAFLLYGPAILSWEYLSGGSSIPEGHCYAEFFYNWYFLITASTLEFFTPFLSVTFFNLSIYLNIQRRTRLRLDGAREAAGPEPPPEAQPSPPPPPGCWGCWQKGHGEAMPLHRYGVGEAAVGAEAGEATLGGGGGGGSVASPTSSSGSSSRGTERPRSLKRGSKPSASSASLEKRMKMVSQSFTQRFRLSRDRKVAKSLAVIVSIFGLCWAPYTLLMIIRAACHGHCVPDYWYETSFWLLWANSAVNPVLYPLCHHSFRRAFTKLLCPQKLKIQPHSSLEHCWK
Sequence of Cholinesterase (P06276 whole entry): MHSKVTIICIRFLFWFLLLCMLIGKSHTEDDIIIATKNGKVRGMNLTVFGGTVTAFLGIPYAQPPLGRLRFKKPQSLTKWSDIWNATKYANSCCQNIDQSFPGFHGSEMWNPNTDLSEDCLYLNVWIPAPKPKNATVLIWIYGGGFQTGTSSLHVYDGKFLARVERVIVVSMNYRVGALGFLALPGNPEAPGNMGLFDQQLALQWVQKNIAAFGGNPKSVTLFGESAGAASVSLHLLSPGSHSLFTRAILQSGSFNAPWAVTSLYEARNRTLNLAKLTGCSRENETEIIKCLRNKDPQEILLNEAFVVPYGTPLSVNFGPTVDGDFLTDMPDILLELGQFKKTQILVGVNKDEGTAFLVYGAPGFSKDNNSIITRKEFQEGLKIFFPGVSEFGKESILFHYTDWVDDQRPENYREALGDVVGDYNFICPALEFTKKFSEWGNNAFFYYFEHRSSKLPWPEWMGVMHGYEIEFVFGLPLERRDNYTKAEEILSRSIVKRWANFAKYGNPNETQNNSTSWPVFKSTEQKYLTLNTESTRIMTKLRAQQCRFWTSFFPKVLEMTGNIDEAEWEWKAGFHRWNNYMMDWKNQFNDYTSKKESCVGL
Sequence of Histamine H1 receptor (Homo sapiens) (P35367 whole entry): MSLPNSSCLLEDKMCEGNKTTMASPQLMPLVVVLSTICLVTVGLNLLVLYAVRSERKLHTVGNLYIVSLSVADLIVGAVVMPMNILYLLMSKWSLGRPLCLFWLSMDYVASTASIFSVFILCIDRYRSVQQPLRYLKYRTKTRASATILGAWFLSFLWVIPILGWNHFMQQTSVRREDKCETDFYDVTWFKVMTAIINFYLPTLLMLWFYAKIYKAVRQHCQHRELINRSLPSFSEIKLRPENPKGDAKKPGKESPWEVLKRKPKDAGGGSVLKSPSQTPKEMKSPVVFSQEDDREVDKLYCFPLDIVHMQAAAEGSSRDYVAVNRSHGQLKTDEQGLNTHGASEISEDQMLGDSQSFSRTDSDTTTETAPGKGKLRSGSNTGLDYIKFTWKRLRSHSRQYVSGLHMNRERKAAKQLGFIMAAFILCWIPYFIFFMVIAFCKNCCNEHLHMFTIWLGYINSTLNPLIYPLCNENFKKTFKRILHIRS
Sequence of Histamine H4 receptor (Q9H3N8 whole entry): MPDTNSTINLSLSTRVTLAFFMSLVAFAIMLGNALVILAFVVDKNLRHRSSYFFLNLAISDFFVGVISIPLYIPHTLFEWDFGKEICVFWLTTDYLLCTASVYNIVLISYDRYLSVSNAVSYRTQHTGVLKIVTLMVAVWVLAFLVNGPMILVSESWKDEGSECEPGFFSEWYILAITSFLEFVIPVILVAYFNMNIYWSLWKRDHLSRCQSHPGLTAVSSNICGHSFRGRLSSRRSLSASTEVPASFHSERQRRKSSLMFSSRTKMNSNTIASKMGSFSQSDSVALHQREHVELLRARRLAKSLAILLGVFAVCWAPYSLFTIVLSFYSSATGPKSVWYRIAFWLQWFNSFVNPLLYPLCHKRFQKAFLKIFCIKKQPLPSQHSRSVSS

Row | Compound | Ki (Histamine H3 receptor) | Activity [1] | inhibition [2] | inhibition (Histamine H3 receptor) | further results
1 | CCOC(=O)C1=C(C)NC(C)=C(C(=O)OCC)C1c1ccc(OCCCN2CCCCC2)cc1 | 0.04 µM | 2.3 equiv | inactive |  | 
2 | CCOC(=O)C1=C(C)NC(C)=C(C(=O)OCC)C1c1ccc(OCCCN2CCCCC2)c(OC)c1 |  | 2.3 equiv | inactive | 20% | 
3 | CCOC(=O)C1=C(C)NC(C)=C(C(=O)OCC)C1c1ccc(OCCN2CCCCC2)cc1 |  | 2.4 equiv | inactive | 18% | 
4 | CCOC(=O)C1=C(C)NC(C)=C(C(=O)OCC)C1c1ccc(OCCN2CCCCC2)c(OC)c1 |  | 3.9 equiv | inactive | < 5% | IC50 [3]: 26 µM
5 | COc1cc2c(cc1OC)C(=O)C(CC1CCN(Cc3ccccc3)CC1)C2 (stereo not given) |  |  |  |  | Activity (Mus musculus [4]): Active
6 | CCOC(=O)C1=C(C)NC(C)=C(C(=O)OCC)C1c1ccc(OCCCN2CCCC2)cc1 | 0.083 µM | 3.5 equiv | inactive |  | 
7 | CCOC(=O)C1=C(C)NC(C)=C(C(=O)OCC)C1c1ccc(OCCCN2CCCCC2)c(OCC)c1 | 1.62 µM | 2.4 equiv | inactive |  | 
8 | CCOC(=O)C1=C(C)NC(C)=C(C(=O)OCC)C1c1ccc(OCCN2CCCCC2)c(Cl)c1 |  | 2.5 equiv | inactive | 17% | IC50 [3]: 2.9 µM
9 | CCOC(=O)C1=C(C)NC(C)=C(C(=O)OCC)C1c1ccc(OCCN2CCCCCC2)c(Cl)c1 |  | 2.4 equiv | inactive | 19% | IC50 [3]: 4 µM
10 | CCOC(=O)C1=C(C)NC(C)=C(C(=O)OCC)C1c1ccc(OCCN2CCCCC2)c(Br)c1 |  | 2.2 equiv | inactive | 37% | IC50 [3]: 2.8 µM
11 | CCOC(=O)C1=C(C)NC(C)=C(C(=O)OCC)C1c1ccc(OCCCCN2CCCC2)cc1 | 0.06 µM | 3.3 equiv | inactive |  | IC50 (Cholinesterase): 7.22 µM
12 | CCOC(=O)C1=C(C)NC(C)=C(C(=O)OCC)C1c1ccc(OCCCN2CCCC2)c(OCC)c1 |  | 2.8 equiv | inactive | 19% | 
13 | CCOC(=O)C1=C(C)NC(C)=C(C(=O)OCC)C1c1ccc(OCCCCCN2CCCCC2)cc1 | 0.565 µM | 3.6 equiv | inactive |  | Activity (SH-SY5Y [5]): 35.1%; IC50 (Histamine H4 receptor): 1.4 µM; Activity (Aorta [6]): Non-Toxic; Activity (SH-SY5Y [7]): 41.8%; Activity (SH-SY5Y [8]): 17%; Activity (SH-SY5Y [9]): 20.9%; Papp at 100 µM [10]: 86 nm/s; Activity (SH-SY5Y [11]): inactive; IC50 (Cholinesterase): 7.83 µM; Activity (SH-SY5Y [12]): inactive; inhibition [13]: inactive; Activity (Aorta [14]): Non-Toxic; Activity (Mus musculus [15]): Active; Activity (Aorta [16]): 5%; Activity (SH-SY5Y [17]): 49.9%; Activity (SH-SY5Y [18]): 64.8%
14 | COC(=O)C1=C(C)NC(C)=C(C(=O)OC)C1c1ccccc1[N+](=O)[O-] [NIFEDIPINE] |  |  |  |  | Activity (Aorta [6]; Aorta): 37%; Activity (Aorta [14]; Aorta): 12%; Activity (Aorta [16]; Aorta): 81%
15 | CCOC(=O)C1=C(C)NC(C)=C(C(=O)OCC)C1c1ccc(OCCN2CCCCCC2)c(Br)c1 |  | 3 equiv | inactive | 8% | IC50 [3]: 1.5 µM
16 | COc1cc(/C=C/C(=O)O)ccc1O |  | 3.7 equiv |  |  | 
17 | CCOC(=O)C1=C(C)NC(C)=C(C(=O)OCC)C1c1ccc(OCCCCN2CCCCC2)cc1 |  | 2.2 equiv | inactive | 49% | 
18 | COc1ccc2[nH]cc(CCNC(C)=O)c2c1 [MELATONIN] |  |  |  |  | Activity (SH-SY5Y [8]): 58.2%; Activity (SH-SY5Y [12]): 76%
19 | CCOC(=O)C1=C(C)NC(C)=C(C(=O)OCC)C1c1ccc(OCCCCCN2CCCC2)cc1 | 0.425 µM | 2.8 equiv | inactive |  | Activity (SH-SY5Y [5]): 48.9%; inhibition (Histamine H4 receptor): inactive; Activity (SH-SY5Y [7]): 18.5%; Activity (SH-SY5Y [8]): 35.5%; Activity (SH-SY5Y [9]): 16%; Papp at 100 µM [10]: 100 nm/s; Activity (SH-SY5Y [11]): 8.81%; IC50 (Cholinesterase): 6.07 µM; Activity (SH-SY5Y [12]): 7.21%; inhibition [13]: inactive; Activity (Mus musculus [15]): inactive; Activity (SH-SY5Y [17]): 35.4%; Activity (SH-SY5Y [18]): 52.8%
20 | CCOC(=O)C1=C(C)NC(C)=C(C(=O)OCC)C1c1ccc(OCCCN2CCCC2)c(OC)c1 |  | 2.3 equiv | inactive | 23% | 
